Where a chain is given by its changes, count along the chain named. pEC50: −log10 of the molar value.
What was measured:
[1] = target: T1, Shp1 S118A/R138E/S140A mutant (Homo sapiens, UniProt P29350, R136E/S116A/S138A); experiment: Isothermal titration calorimetry, Shp1 S118A/R138E/S140A mutant; type: binding; details: very small heat effect, value not with sufficient confidence
T1 construct: a tailless-form of Shp1 (residues 1–529) has previously been used [25] and it is used also in this study; 6xHis (N); made in house; host or cells: E. coli BL21(DE3)
T1 sequence (P29350 1-529 isoform P29350-3 S118A/R138E/S140A): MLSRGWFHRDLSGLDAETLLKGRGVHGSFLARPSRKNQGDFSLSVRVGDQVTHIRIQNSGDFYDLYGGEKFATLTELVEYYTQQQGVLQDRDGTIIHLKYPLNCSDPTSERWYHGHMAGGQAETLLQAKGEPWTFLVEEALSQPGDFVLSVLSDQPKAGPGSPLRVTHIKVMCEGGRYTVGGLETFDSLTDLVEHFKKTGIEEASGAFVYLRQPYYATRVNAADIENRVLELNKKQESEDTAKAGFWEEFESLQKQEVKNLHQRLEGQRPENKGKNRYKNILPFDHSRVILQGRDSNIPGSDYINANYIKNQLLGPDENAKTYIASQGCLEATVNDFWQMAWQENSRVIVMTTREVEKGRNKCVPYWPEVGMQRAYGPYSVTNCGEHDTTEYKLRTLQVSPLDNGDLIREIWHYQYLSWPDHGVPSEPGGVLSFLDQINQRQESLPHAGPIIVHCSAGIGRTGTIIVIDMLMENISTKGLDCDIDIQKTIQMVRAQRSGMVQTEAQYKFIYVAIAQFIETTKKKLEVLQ
Protocol: ITC measurements were performed by using a Nano-ITC III (TA instruments, New Castle, DE, USA) with a reaction cell volume of 1 ml kept at 25 °C. A protein solution of 10 μM was titrated into the calorimetric cell with a solution of 50–100 μM of the ligand GroPIns4P (Ins4P) in the syringe. A sequence of 16 injections of 15 μL volume was programmed with a stirring speed of 250 rpm at 500 s intervals. Protein samples were prepared with protein solutions at 25 °C in 20 mM Tris buffer pH 7.4 with 50 mM NaCl and 1 mM TCEP. To minimise the differences in buffer composition and pH between cell and syringe, both ligand and protein solutions were prepared with the same batch of buffer. The heat of dilution of the GroPIns4P into the buffer solution was measured in a separate experiment and appropriate corrections were made. The heat evolved after each ligand injection was obtained from the integral of the calorimetric signal. Raw data were integrated, corrected for non-specific heats and normalized for concentration. The equilibrium dissociation constant (KD), binding enthalpy (ΔbH) and binding stoichiometry (n) were obtained by nonlinear regression of the experimental data using a model of independent binding sites, by means of the NanoAnalyze software. Experiments were performed in duplicate.

Shp1 = target: T2, Shp1 (Homo sapiens, UniProt P29350); experiment: Steady-state Trp fluorescence emission spectroscopy of purified Shp1; type: binding
T2 construct: the C-terminal truncated form of human Shp1 cDNA (His-Shp1; amino acids 1–529); made in house; host or cells: E. coli BL21(DE3)
T2 sequence (P29350 1-529 isoform P29350-3): T1 sequence (P29350 1-529 isoform P29350-3 S118A/R138E/S140A) with A118S, E138R, A140S
Protocol: The absorption spectra of Shp1 were recorded using a Varian Cary 1 spectrophotometer. Steady-state fluorescence emission measurements were performed with a K2 fluorometer (ISS, Champaign, IL, USA) equipped with a two-cell temperature-controlled sample holder. To selectively excite Trp residues, the excitation wavelength was set at 295 nm with a slit width of 1 nm. To avoid the inner-filter effect, all steady-state fluorescence measurements were performed on Shp1 with optical densities at 295 nm less than 0.1 OD. All measurements were made at 25 °C with the temperature of the samples determined in the cuvette with an accuracy of ±0.2 °C. For each experiment, the Shp1 concentration was fixed at 1.2 μM, while GroPIns4P was varied from 0.0 to 5.0 μM. Thus, a 500 μL solution containing 1.2 μM Shp1 dissolved in PBS pH 7.4 was titrated by successive additions of GroPIns4P (dissolved in PBS buffer, pH 7.4). After each addition, the samples were incubated for 2 min and fluorescence emission spectra were recorded between 310 and 410 nm in triplicate. To exclude the influence of sample dilution, fluorescence titration experiments were performed by adding the same amount of PBS buffer in the total volume (500 μL).

Shp1 cSH2 domain = test system: T3, Shp1 cSH2 domain; experiment: NMR 1H-15N HSQC titration of cSH2 domain; type: binding, human; details: fast exchange regime, cSH2:GroPIns4P up to 1:5
T3 construct: The purified C-terminal SH2 domain (cSH2) was selected for these studies; made in house
Protocol: A suite of triple resonance experiments (Additional file 1 Table S1) was used for assignment of the ^1H, ^15N and ^13C backbone resonances of the Shp1 cSH2 domain. All experiments were acquired on a 700 MHz Bruker Avance instrument equipped with a TCI cryoprobe. Assignment of the cSH2 domain backbone resonances was complete with the exception of the resonances of S109 and G175. ^15N cSH2 (200 μM) was titrated with GroPIns4P, and a series of ^1H–^15N-HSQC spectra were recorded at different cSH2:GroPIns4P ratios up to a 1:5 ratio. […] The ^1HN and ^15N chemical shift perturbations were estimated by using the following equation [23]: Δδ=ΔHN^2+ΔN/5^2/2^1/2
Where ΔHN and ΔN are the differences between the ^1H and ^15N chemical shifts of free cSH2 and cSH2 in the presence of GroPIns4P, respectively.

KD relative to Shp1 WT [1]: about one order of magnitude higher
pEC50 (Shp1; Shp1 1.2 μM, GroPIns4P 0.0 to 5.0 μM, emission at 332 nm, read-out: apparent EC50 of Trp fluorescence quenching): ~6.22
maximal quenching of the initial emission (Shp1; at 5 μM GroPIns4P): 18%
Compound: O=P(O)(O)OC1C(O)C(O)C(OP(=O)(O)OCC(O)CO)C(O)C1O (stereo not shown) [GroPIns4P, glycerophosphoinositol 4-phosphate]
exchange rate between bound and free cSH2 (Shp1 cSH2 domain): higher than 2 × 10^3 s^-1
